Reference: article PMC6370589 (ChemMedChem, 2018)
Entries after “also recorded” stand apart in the source; their conditions may differ.

Key:
Daoy cells [1] = test: MTS cellular metabolic viability assay, Daoy; type: cell-based
[2] = system: phosphorylated CDK1 at Tyr15; test: pCDK1; type: cell-based; details: Daoy, 24 h; for change in pCDK1(Tyr15) level vs DMSO control: 220 nM, n=3; for pCDK1 ELISA dose-response: 1 μM to 62 nM, EC50 values not determinable
recombinant PLK1 kinase = recombinant PLK1 kinase (Homo sapiens, UniProt P53350); test: PLK1 recombinant kinase LANCE TR-FRET assay; type: biochemical
Daoy cells [3] = details: for concentration with appreciable cytotoxicity, not before 48 hours: from 48 h
recombinant WEE1 = recombinant WEE1 (Homo sapiens, UniProt P30291); test: WEE1 recombinant kinase TR-FRET; type: binding
in vitro = details: human
[4] = system: phosphorylated CDK1 at Tyr15; details: read-out: pCDK1 ELISA EC50; Daoy; previously determined; cited from earlier work
WEE1 = details: read-out: WEE1 IC50; radiolabeled ATP kinase assay; cited from earlier work
[5] = biological target: Src family tyrosine kinase YES1; details: read-out: YES1 IC50; radiolabeled ATP kinase assay; cited from earlier work
8 other kinases = details: 1.0 μM, profile of 223 kinases; cited from earlier work
[6] = system: advanced refractory solid tumors; details: Phase I, single agent; cited from earlier work
ONS-76 cells = test: MTS cellular metabolic viability assay, ONS-76; type: cell-based; details: ONS-76, 72 h

Sequence of recombinant PLK1 kinase (P53350 whole entry): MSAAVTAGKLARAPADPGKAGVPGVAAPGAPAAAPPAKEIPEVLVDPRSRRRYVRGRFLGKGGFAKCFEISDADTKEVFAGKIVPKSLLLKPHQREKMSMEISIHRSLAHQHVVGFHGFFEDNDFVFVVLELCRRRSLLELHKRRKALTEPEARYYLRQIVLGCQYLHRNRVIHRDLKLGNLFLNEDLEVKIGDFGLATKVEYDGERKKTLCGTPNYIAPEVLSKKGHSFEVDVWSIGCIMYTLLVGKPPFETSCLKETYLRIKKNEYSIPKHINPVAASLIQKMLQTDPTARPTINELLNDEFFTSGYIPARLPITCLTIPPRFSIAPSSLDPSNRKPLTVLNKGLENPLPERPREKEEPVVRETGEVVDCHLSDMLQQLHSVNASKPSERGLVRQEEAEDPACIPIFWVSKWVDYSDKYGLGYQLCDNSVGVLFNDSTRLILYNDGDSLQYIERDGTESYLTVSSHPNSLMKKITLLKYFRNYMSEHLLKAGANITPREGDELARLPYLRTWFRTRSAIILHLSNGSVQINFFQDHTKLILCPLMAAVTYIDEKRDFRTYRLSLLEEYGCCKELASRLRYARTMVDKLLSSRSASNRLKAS
Sequence of recombinant WEE1 (P30291 whole entry): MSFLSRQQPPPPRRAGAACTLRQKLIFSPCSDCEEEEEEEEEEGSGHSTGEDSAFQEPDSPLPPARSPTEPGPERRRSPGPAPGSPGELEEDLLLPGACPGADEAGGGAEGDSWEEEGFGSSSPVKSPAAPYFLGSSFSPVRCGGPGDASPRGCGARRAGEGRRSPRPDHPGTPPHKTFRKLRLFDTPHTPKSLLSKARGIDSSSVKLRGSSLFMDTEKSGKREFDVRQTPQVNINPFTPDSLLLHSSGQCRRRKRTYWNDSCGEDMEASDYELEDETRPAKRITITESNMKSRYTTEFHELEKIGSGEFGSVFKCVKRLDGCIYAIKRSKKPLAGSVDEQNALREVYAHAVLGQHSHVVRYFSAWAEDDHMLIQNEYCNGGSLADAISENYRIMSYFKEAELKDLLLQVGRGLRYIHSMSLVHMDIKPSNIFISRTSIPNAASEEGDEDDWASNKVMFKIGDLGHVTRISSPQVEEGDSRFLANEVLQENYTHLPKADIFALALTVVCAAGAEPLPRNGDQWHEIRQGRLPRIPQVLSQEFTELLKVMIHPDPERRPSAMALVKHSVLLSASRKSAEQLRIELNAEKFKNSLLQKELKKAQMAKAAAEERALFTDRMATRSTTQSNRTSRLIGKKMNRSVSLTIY

C=CCn1c(=O)c2cnc(Nc3ccc(OCCN(C)C)cc3)nc2n1-c1cccc(C(C)(C)O)n1 [Compound 29, 2-allyl-6-((4-(2-(dimethylamino)ethoxy)phenyl)amino)-1-(6-(2-hydroxypropan-2-yl)pyridin-2-yl)-1,2-dihydro-3H-pyrazolo[3,4-d]pyrimidin-3-one]
MTS % effect (activity) at 600 nM, Daoy (Daoy cells [1]; 72 h, 600 nM): 81%
change in pCDK1(Tyr15) level vs DMSO control [2]: statistically significant decrease in pCDK1 levels
pCDK1 ELISA dose-response [2]: comparable effects on pCDK1 levels
IC50 (recombinant PLK1 kinase): 161 ± 10 nM
CellTox Green dose-response / EC50 determination (Daoy cells [3]; 72 h, up to 2400 nM): Sigmoidal dose-response curves were not obtained; also recorded: did not display sufficient cytotoxicity for EC50 determination
concentration with appreciable cytotoxicity, not before 48 hours (Daoy cells [3]): > 300 nM

C=C(C)c1cccc(-n2[nH]c(=O)c3cnc(Nc4ccc(N5CCN(C)CC5)cc4)nc32)n1 [Compound 34, 6-((4-(4-methylpiperazin-1-yl)phenyl)amino)-1-(6-(prop-1-en-2-yl)pyridin-2-yl)-1,2-dihydro-3H-pyrazolo[3,4-d]pyrimidin-3-one]
IC50 (recombinant WEE1): 190 ± 12 nM

C=CCn1c(=O)c2cnc(Nc3ccc(CCN(C)C)cc3)nc2n1-c1cccc(C(C)(C)O)n1 [Compound 28, 2-allyl-6-((4-(2-(dimethylamino)ethyl)phenyl)amino)-1-(6-(2-hydroxypropan-2-yl)pyridin-2-yl)-1,2-dihydro-3H-pyrazolo[3,4-d]pyrimidin-3-one]
change in pCDK1(Tyr15) level vs DMSO control [2]: statistically significant decrease in pCDK1 levels
pCDK1 ELISA dose-response [2]: comparable effects on pCDK1 levels
IC50 (recombinant PLK1 kinase): 270 ± 29 nM
concentration with some cytotoxicity within 24 hours (Daoy cells [3]; 24 h): 1200 nM
EC50 at 72 h (in vitro): 651 ± 16 nM

C=CCn1c(=O)c2cnc(Nc3ccc(N4CCN(C)CC4)cc3)nc2n1-c1cccc(C(C)(C)O)n1 [AZD1775, 2-allyl-1-(6-(2-hydroxypropan-2-yl)pyridin-2-yl)-6-((4-(4-methylpiperazin-1-yl)phenyl)amino)-1,2-dihydro-3H-pyrazolo[3,4-d]pyrimidin-3-one, reference compound]
EC50 (Daoy cells [1]; Homo sapiens, read-out: MTS EC50 used to set the concentration range, Daoy): 150 nM
change in pCDK1(Tyr15) level vs DMSO control [2]: statistically significant decrease in pCDK1 levels
pCDK1 ELISA dose-response [2]: comparable effects on pCDK1 levels
IC50 (recombinant PLK1 kinase): 77.6 ± 9.3 nM
concentration with cytotoxic effects within 24 hours (Daoy cells [3]; 24 h): > 600 nM
concentration with cytotoxic effects after 72 hours (Daoy cells [3]; 72 h): > 75 nM
EC50 [4]: 220 nM
IC50 (WEE1): 5 nM
IC50 [5]: 14 nM
inhibition of 8 other kinases (8 other kinases): > 80%
EC50 at 72 h (in vitro; Daoy cells): 188 ± 26 nM
dose-limiting toxicities [6]: supraventricular tachyarrhythmia and myelosuppression

C=CCn1c(=O)c2cnc(Nc3ccc(N4CCN(C)CC4)cc3)nc2n1-c1cccc(C(C)(C)O)c1 [Compound 31, 2-allyl-1-(3-(2-hydroxypropan-2-yl)phenyl)-6-((4-(4-methylpiperazin-1-yl)phenyl)amino)-1,2-dihydro-3H-pyrazolo[3,4-d]pyrimidin-3-one]
MTS % effect at 1.16 μM, ONS-76 (ONS-76 cells): 57%
change in pCDK1(Tyr15) level vs DMSO control [2]: did not cause a significant reduction in pCDK1 levels
IC50 (recombinant PLK1 kinase): 394 ± 37 nM
concentration with appreciable cytotoxicity, not before 48 hours (Daoy cells [3]): > 300 nM

C=CCn1c(=O)c2cnc(Nc3cccc(N(C)C)c3)nc2n1-c1cccc(C(C)(C)O)n1 [Compound 25, 2-allyl-6-((3-(dimethylamino)phenyl)amino)-1-(6-(2-hydroxypropan-2-yl)pyridin-2-yl)-1,2-dihydro-3H-pyrazolo[3,4-d]pyrimidin-3-one]
change in pCDK1(Tyr15) level vs DMSO control [2]: significant increases in pCDK1 levels

C=CCn1c(=O)c2cnc(Nc3ccccc3)nc2n1-c1cccc(C(C)(C)O)n1 [Compound 24, 2-allyl-1-(6-(2-hydroxypropan-2-yl)pyridin-2-yl)-6-(phenylamino)-1,2-dihydro-3H-pyrazolo[3,4-d]pyrimidin-3-one]
change in pCDK1(Tyr15) level vs DMSO control [2]: significant increases in pCDK1 levels
